Source: the supplement of paper PMC4862054

Columns and labels:
Settings in all cases: incubation time: 72 h
CAL-148 [1] = experiment: normalised viability (% of control), CellTiter-Blue; higher = more viable cells (about 100 = DMSO control)
Experimental: (§1)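 DSRT, CellTiter-Blue viability, 72 h incubation. Signal is normalised to DMSO and benzethonium chloride controls. Value is the normalised response at dose 7.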

CAL-85-1 [2] = experiment: as above
Experimental: as §1

CAL-51 [3] = experiment: as above
Experimental: as §1

HDQ-P1 [4] = experiment: as above
Experimental: as §1

MDA-MB-453 [5] = experiment: as above
Experimental: as §1

DU-4475 [6] = experiment: as above
Experimental: as §1

CAL-148 [7] = experiment: as above; remark: listed apart in the source
Experimental: (§2)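 DSRT, CellTiter-Blue viability, 72 h incubation. Signal is normalised to DMSO and benzethonium chloride controls. Value is the normalised response at dose 9.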

CAL-85-1 [8] = experiment: as above; remark: listed apart in the source
Experimental: as §2

CAL-51 [9] = experiment: as above; remark: listed apart in the source
Experimental: as §2

HDQ-P1 [10] = experiment: as above; remark: listed apart in the source
Experimental: as §2

MDA-MB-453 [11] = experiment: as above; remark: listed apart in the source
Experimental: as §2

DU-4475 [12] = experiment: as above; remark: listed apart in the source
Experimental: as §2

CAL-148 [13] = experiment: normalised response (% of control), CellTiter-Glo; higher = more viable cells (100 = DMSO, 0 = benzethonium chloride kill control)
In short: (§3)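 Plates were normalised with 0.1 % DMSO as 100 and a positive kill control as 0. Breast cancer cell lines in 20 µl suspension had been seeded into 384-well plates with compound at 5 concentrations in 10-fold steps over a compound-specific 10,000-fold range, incubated 72 h, and read for CellTox Green fluorescence (485/520 nm) followed by CellTiter-Glo luminescence. Each value is the normalised signal at a single concentration.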

SK-BR-3 = experiment: as above
In short: as §3

CAL-85-1 [14] = experiment: as above
In short: as §3

BT-474 = experiment: as above
In short: as §3

Hs578T = experiment: as above
In short: as §3

CAL-51 [15] = experiment: as above
In short: as §3

HDQ-P1 [16] = experiment: as above
In short: as §3

BT-549 = experiment: as above
In short: as §3

MDA-MB-468 = experiment: as above
In short: as §3

HCC1937 = experiment: as above
In short: as §3

MDA-MB-231 = experiment: as above
In short: as §3

MFM-223 = experiment: as above
In short: as §3

MCF-10A = experiment: as above
In short: as §3

HCC1143 = experiment: as above
In short: as §3

HCC1599 = experiment: as above
In short: as §3

MDA-MB-436 = experiment: as above
In short: as §3

MDA-MB-453 [17] = experiment: as above
In short: as §3

CAL-120 = experiment: as above
In short: as §3

DU-4475 [18] = experiment: as above
In short: as §3

CAL-148 [19] = experiment: normalised viability (% of control), CellTiter-Blue; higher = more viable cells (about 100 = DMSO control); remark: listed apart in the source
Experimental: (§4)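 DSRT, CellTiter-Blue viability, 72 h incubation. Signal is normalised to DMSO and benzethonium chloride controls. Value is the normalised response at dose 6.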

CAL-85-1 [20] = experiment: as above; remark: listed apart in the source
Experimental: as §4

CAL-51 [21] = experiment: as above; remark: listed apart in the source
Experimental: as §4

HDQ-P1 [22] = experiment: as above; remark: listed apart in the source
Experimental: as §4

MDA-MB-453 [23] = experiment: as above; remark: listed apart in the source
Experimental: as §4

DU-4475 [24] = experiment: as above; remark: listed apart in the source
Experimental: as §4

Structure (SMILES)	normalised viability (CAL-148 [1]) [%]	normalised viability (CAL-85-1 [2]) [%]	normalised viability (CAL-51 [3]) [%]	normalised viability (HDQ-P1 [4]) [%]	normalised viability (MDA-MB-453 [5]) [%]	normalised viability (DU-4475 [6]) [%]	normalised viability (CAL-148 [7]) [%]	normalised viability (CAL-85-1 [8]) [%]	normalised viability (CAL-51 [9]) [%]	normalised viability (HDQ-P1 [10]) [%]	normalised viability (MDA-MB-453 [11]) [%]	normalised viability (DU-4475 [12]) [%]	further results
O=P(O)(NCCCl)NCCCl [Ifosfamide mustard] (1000 nM)	111	89.4	107	119	104	112							
CC[C@@]1(O)C(=O)OCc2c1cc1n(c2=O)Cc2cc3ccccc3nc2-1 [Camptothecin] (5000 nM)							0.33	13.9	1.8	24.2	5.48	-0.07	
c1ccc(C2CN3CCSC3=N2)cc1 (centres undefined) [Tetramisole] (10000 nM)							117	98.1	89.3	116	99.5	101	
CCCC(CCC)C(=O)O [Valproic acid] (1000 nM)	88.8	90.6	89.1	112	116	94.8							normalised response (CAL-148 [13]): 96.2%; normalised response (SK-BR-3): 92.3%; normalised response (CAL-85-1 [14]): 93.9%; normalised response (BT-474): 103%; normalised response (Hs578T): 103%; normalised response (CAL-51 [15]): 70.3%; normalised response (HDQ-P1 [16]): 103%; normalised response (BT-549): 99.8%; normalised response (MDA-MB-468): 93.8%; normalised response (HCC1937): 99.5%; normalised response (MDA-MB-231): 101%; normalised response (MFM-223): 94.5%; normalised response (MCF-10A): 98.7%; normalised response (HCC1143): 103%; normalised response (HCC1599): 31.2%; normalised response (MDA-MB-436): 95.6%; normalised response (MDA-MB-453 [17]): 111%; normalised response (CAL-120): 99.9%; normalised response (DU-4475 [18]): 94.9%
COC(=O)C[C@](O)(CCCC(C)(C)O)C(=O)O[C@@H]1C(OC)=C[C@]23CCCN2CCc2cc4c(cc2[C@H]13)OCO4 [Omacetaxine mepesuccinate] (1000 nM)	12.4	3.04	4.98	13.1	15.1	9.53							
CC[C@@]1(O)C(=O)OCc2c1cc1n(c2=O)Cc2cc3ccccc3nc2-1 [Camptothecin] (500 nM)	8	40	5.8	50.3	23.7	10.7							
COc1cc(Nc2ncc(F)c(Nc3ccc4c(n3)NC(=O)C(C)(C)O4)n2)cc(OC)c1OC [R406] (1000 nM)	97.2	84.7	112	103	96.4	105							
COc1cc(Nc2ncc(F)c(Nc3ccc4c(n3)NC(=O)C(C)(C)O4)n2)cc(OC)c1OC [R406] (10000 nM)							99.8	94.6	97.8	108	110	102	
O=P(O)(NCCCl)NCCCl [Ifosfamide mustard] (10000 nM)							105	87.1	94.3	105	99.8	96.1	
COc1cc(Nc2ncc(F)c(Nc3ccc4c(n3)NC(=O)C(C)(C)O4)n2)cc(OC)c1OC [R406] (300 nM)													normalised viability (CAL-148 [19]): 108%; normalised viability (CAL-85-1 [20]): 98.3%; normalised viability (CAL-51 [21]): 114%; normalised viability (HDQ-P1 [22]): 102%; normalised viability (MDA-MB-453 [23]): 109%; normalised viability (DU-4475 [24]): 87.5%
c1ccc(C2CN3CCSC3=N2)cc1 (centres undefined) [Tetramisole] (1000 nM)	131	98.7	90.2	109	108	74							
COC(=O)C[C@](O)(CCCC(C)(C)O)C(=O)O[C@@H]1C(OC)=C[C@]23CCCN2CCc2cc4c(cc2[C@H]13)OCO4 [Omacetaxine mepesuccinate] (10000 nM)							5.68	2.22	3.97	15.2	2.46	1.55	
C#Cc1cccc(Nc2ncnc3cc(OC)c(OCCCCCCC(=O)NO)cc23)c1 [CUDC-101] (300 nM)													normalised viability (CAL-148 [19]): 81.9%; normalised viability (CAL-85-1 [20]): 64.1%; normalised viability (CAL-51 [21]): 105%; normalised viability (HDQ-P1 [22]): 38.8%; normalised viability (MDA-MB-453 [23]): 46%; normalised viability (DU-4475 [24]): 75.1%
COc1ccc(C2=N[C@@H](c3ccc(Cl)cc3)[C@@H](c3ccc(Cl)cc3)N2C(=O)N2CCNC(=O)C2)c(OC(C)C)c1 [Nutlin-3] (300 nM)													normalised viability (CAL-148 [19]): 96.3%; normalised viability (CAL-85-1 [20]): 89.9%; normalised viability (CAL-51 [21]): 99%; normalised viability (HDQ-P1 [22]): 66.2%; normalised viability (MDA-MB-453 [23]): 91.2%; normalised viability (DU-4475 [24]): 84.8%
CCOc1cc2ncc(C#N)c(Nc3ccc(OCc4ccccn4)c(Cl)c3)c2cc1NC(=O)/C=C/CN(C)C [Neratinib] (30 nM)													normalised viability (CAL-148 [19]): 85.9%; normalised viability (CAL-85-1 [20]): 107%; normalised viability (CAL-51 [21]): 96%; normalised viability (HDQ-P1 [22]): 94.3%; normalised viability (MDA-MB-453 [23]): 81.2%; normalised viability (DU-4475 [24]): 100%
